Values of other authors in patent US20060247361A1, “Polar functionalized polymer modified porous substrate for solid phase extraction” (priority 2005, published 2006).
Where a name gives a salt, the structure may show the parent alone.

| Compound | Log P |
| --- | --- |
| CN(C)CCC(c1ccc(Br)cc1)c1ccccn1 (stereo not shown) [Brompheniramine] | 3.89 |
| CN(C)CCC(c1ccc(Cl)cc1)c1ccccn1 (stereo not shown) [Chlorpheniramine maleate] | 3.38 |
| CNCCC=C1c2ccccc2CCc2ccccc21 [Nortriptyline] | 4.74 |

The next lines start with the values.

| Log P | Compound |
| --- | --- |
| 3.85 | CN1CCN2c3ccccc3Cc3ccccc3C2C1 (stereo not shown) [Mianserin] |
| 3.75 | NCCC(Oc1ccc(C(F)(F)F)cc1)c1ccccc1 (stereo not shown) [Norfluoxetine] |
| 0.97 | CC(C)(C)NCC(O)c1ccc(O)c(CO)c1 (stereo not shown) [Salbutamol] |
| 1.83 | CC(C)(C)NC[C@H](O)COc1nsnc1N1CCOCC1 [Timolol maleate] |
